Values joined by “and” are separate entries in the source; they are usually repeats but may differ in a detail not shown here. Equal entries are not always repeated.
Tested on: Hs578T complex spheroid growth, percent test/control
Experiment: Anticancer human tumor Hs578T cell line growth inhibition [AhR];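 further: luminescent viability signal as a proxy for spheroid growth; spheroids exposed to agents for one week after three days of growth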
Details: for viability, T/C: stronger effect = lower value; for IC50: curve of first compound; active means viability on the fitted dose curve at most 10% of control; inactive means the rest
How it was run: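 Agents were dosed in half-log steps down from roughly clinical Cmax, or from 10 microM where Cmax was unknown, alone and with AhR antagonists. Read-out: percent test/control growth of tumor spheroids containing HUVEC and MSC stromal cells.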

[1] = second compound 0.1 µM, first compound 0.0316 µM
[2] = second compound 0.1 µM, first compound 0.1 µM
[3] = second compound 0.1 µM, first compound 0.316 µM
[4] = second compound 0.1 µM, first compound 1 µM
[5] = second compound 0.1 µM, first compound 3.16 µM
[6] = second compound 0.1 µM, first compound 10 µM
[7] = second compound 0.316 µM, first compound 0.0316 µM
[8] = second compound 0.316 µM, first compound 0.1 µM
[9] = second compound 0.316 µM, first compound 0.316 µM
[10] = second compound 0.316 µM, first compound 1 µM
[11] = second compound 0.316 µM, first compound 3.16 µM
[12] = second compound 0.316 µM, first compound 10 µM
[13] = second compound 1 µM, first compound 0.0316 µM
[14] = second compound 1 µM, first compound 0.1 µM
[15] = second compound 1 µM, first compound 0.316 µM
[16] = second compound 1 µM, first compound 1 µM
[17] = second compound 1 µM, first compound 3.16 µM
[18] = second compound 1 µM, first compound 10 µM
[19] = second compound 3.16 µM, first compound 0.0316 µM
[20] = second compound 3.16 µM, first compound 0.1 µM
[21] = second compound 3.16 µM, first compound 0.316 µM
[22] = second compound 3.16 µM, first compound 1 µM
[23] = second compound 3.16 µM, first compound 3.16 µM
[24] = second compound 3.16 µM, first compound 10 µM
[25] = second compound 10 µM, first compound 0.0316 µM
[26] = second compound 10 µM, first compound 0.1 µM
[27] = second compound 10 µM, first compound 0.316 µM
[28] = second compound 10 µM, first compound 1 µM
[29] = second compound 10 µM, first compound 3.16 µM
[30] = second compound 10 µM, first compound 10 µM

Nc1ccn(C2OC(CO)C(O)C2(F)F)c(=O)n1 (stereo unspecified)
inactive: viability, T/C (compound 0.0316 µM) 47.9% and 47.2% and 52.3% | viability, T/C (compound 0.1 µM) 58.5% and 48.9% and 52.8% | viability, T/C (compound 0.316 µM) 58.5% and 51% and 51.5% | viability, T/C (compound 1 µM) 52.4% and 51.2% and 50.9% | viability, T/C (compound 3.16 µM) 50.7% and 50.1% and 51.2% | viability, T/C (compound 10 µM) 56.5% and 43.3% and 49%

Nc1ncn(C2CC(O)C(CO)S2)c(=O)n1 (stereo unspecified) + Cc1cncc(-c2nc(NCCc3c[nH]c4ccccc34)c3ncn(C(C)C)c3n2)c1
> 0.3 µM: IC50 (second compound 0.1 µM) | IC50 (second compound 0.316 µM) | IC50 (second compound 1 µM) | IC50 (second compound 3.16 µM)
active: viability, T/C (second compound 10 µM, first compound 0.003 µM) 7.61% | viability, T/C (second compound 10 µM, first compound 0.00949 µM) 7.86% | viability, T/C (second compound 10 µM, first compound 0.03 µM) 8.27% | viability, T/C (second compound 10 µM, first compound 0.0949 µM) 7.59% | viability, T/C (second compound 10 µM, first compound 0.3 µM) 7.47%
inactive: viability, T/C (second compound 0.1 µM, first compound 0.000949 µM) 110% | viability, T/C (second compound 0.1 µM, first compound 0.003 µM) 119% | viability, T/C (second compound 0.1 µM, first compound 0.00949 µM) 117% | viability, T/C (second compound 0.1 µM, first compound 0.03 µM) 108% | viability, T/C (second compound 0.1 µM, first compound 0.0949 µM) 104% | viability, T/C (second compound 0.1 µM, first compound 0.3 µM) 92.9% | viability, T/C (second compound 0.316 µM, first compound 0.000949 µM) 116% | viability, T/C (second compound 0.316 µM, first compound 0.003 µM) 114% | viability, T/C (second compound 0.316 µM, first compound 0.00949 µM) 115% | viability, T/C (second compound 0.316 µM, first compound 0.03 µM) 107% | viability, T/C (second compound 0.316 µM, first compound 0.0949 µM) 108% | viability, T/C (second compound 0.316 µM, first compound 0.3 µM) 93.9% | viability, T/C (second compound 1 µM, first compound 0.000949 µM) 92.2% | viability, T/C (second compound 1 µM, first compound 0.003 µM) 95.3% | viability, T/C (second compound 1 µM, first compound 0.00949 µM) 91% | viability, T/C (second compound 1 µM, first compound 0.03 µM) 82.4% | viability, T/C (second compound 1 µM, first compound 0.0949 µM) 88.8% | viability, T/C (second compound 1 µM, first compound 0.3 µM) 86.4% | viability, T/C (second compound 3.16 µM, first compound 0.000949 µM) 46.2% | viability, T/C (second compound 3.16 µM, first compound 0.003 µM) 54.2% | viability, T/C (second compound 3.16 µM, first compound 0.00949 µM) 55.5% | viability, T/C (second compound 3.16 µM, first compound 0.03 µM) 49.4% | viability, T/C (second compound 3.16 µM, first compound 0.0949 µM) 47% | viability, T/C (second compound 3.16 µM, first compound 0.3 µM) 55% | viability, T/C (second compound 10 µM, first compound 0.000949 µM) 14.1%
< 0.000949 µM: IC50 (second compound 10 µM)

COc1cc(Nc2ncc3c(n2)-c2ccc(Cl)cc2C(c2c(F)cccc2OC)=NC3)ccc1C(=O)O + Cc1cncc(-c2nc(NCCc3c[nH]c4ccccc34)c3ncn(C(C)C)c3n2)c1
inactive: viability, T/C [1] 91.4% | viability, T/C [2] 94.7% | viability, T/C [3] 99.6% | viability, T/C [4] 101% | viability, T/C [5] 85.6% | viability, T/C [6] 65.1% | viability, T/C [7] 93.5% | viability, T/C [8] 93.2% | viability, T/C [9] 107% | viability, T/C [10] 90.5% | viability, T/C [11] 88.2% | viability, T/C [12] 66.9% | viability, T/C [13] 98.5% | viability, T/C [14] 81.7% | viability, T/C [15] 104% | viability, T/C [16] 99.2% | viability, T/C [17] 86.7% | viability, T/C [18] 62.5% | viability, T/C [19] 55.6% | viability, T/C [20] 62.4% | viability, T/C [21] 70.1% | viability, T/C [22] 59.4% | viability, T/C [23] 61.1% | viability, T/C [24] 53.3%
< 0.0316 µM: IC50 (second compound 10 µM)
active: viability, T/C [25] 6.12% | viability, T/C [26] 5.86% | viability, T/C [27] 6.53% | viability, T/C [28] 6.24% | viability, T/C [29] 8.49% | viability, T/C [30] 12.8%
> 10 µM: IC50 (second compound 0.1 µM) | IC50 (second compound 0.316 µM) | IC50 (second compound 1 µM) | IC50 (second compound 3.16 µM)

CC1COCCN1c1cc(C2(S(C)(=N)=O)CC2)nc(-c2ccnc3[nH]ccc23)n1 (stereo unspecified) + Cc1cncc(-c2nc(NCCc3c[nH]c4ccccc34)c3ncn(C(C)C)c3n2)c1
active: viability, T/C [25] 8.31% | viability, T/C [26] 8.78% | viability, T/C [27] 9.14% | viability, T/C [28] 8% | viability, T/C [29] 9.08% | viability, T/C [30] 11.8%
< 0.0316 µM: IC50 (second compound 10 µM)
inactive: viability, T/C [1] 120% | viability, T/C [2] 115% | viability, T/C [3] 111% | viability, T/C [4] 102% | viability, T/C [5] 92.1% | viability, T/C [6] 66.2% | viability, T/C [7] 119% | viability, T/C [8] 119% | viability, T/C [9] 116% | viability, T/C [10] 113% | viability, T/C [11] 105% | viability, T/C [12] 60.4% | viability, T/C [13] 106% | viability, T/C [14] 107% | viability, T/C [15] 118% | viability, T/C [16] 111% | viability, T/C [17] 98.2% | viability, T/C [18] 62.5% | viability, T/C [19] 62.5% | viability, T/C [20] 57.2% | viability, T/C [21] 59.1% | viability, T/C [22] 64.5% | viability, T/C [23] 55.3% | viability, T/C [24] 43.3%
> 10 µM: IC50 (second compound 0.1 µM) | IC50 (second compound 0.316 µM) | IC50 (second compound 1 µM) | IC50 (second compound 3.16 µM)

O=C(c1cc(Cc2n[nH]c(=O)c3ccccc23)ccc1F)N1CCN(C(=O)C2CC2)CC1 + Cc1cncc(-c2nc(NCCc3c[nH]c4ccccc34)c3ncn(C(C)C)c3n2)c1
inactive: viability, T/C [1] 122% | viability, T/C [2] 120% | viability, T/C [3] 119% | viability, T/C [4] 114% | viability, T/C [5] 103% | viability, T/C [6] 94.8% | viability, T/C [7] 116% | viability, T/C [8] 118% | viability, T/C [9] 132% | viability, T/C [10] 131% | viability, T/C [11] 114% | viability, T/C [12] 107% | viability, T/C [13] 107% | viability, T/C [14] 117% | viability, T/C [15] 122% | viability, T/C [16] 105% | viability, T/C [17] 103% | viability, T/C [18] 97.7% | viability, T/C [19] 74.7% | viability, T/C [20] 68.6% | viability, T/C [21] 77.9% | viability, T/C [22] 60.3% | viability, T/C [23] 55.9% | viability, T/C [24] 69.2%
> 10 µM: IC50 (second compound 0.1 µM) | IC50 (second compound 0.316 µM) | IC50 (second compound 1 µM) | IC50 (second compound 3.16 µM)
active: viability, T/C [25] 7.27% | viability, T/C [26] 8.04% | viability, T/C [27] 6.95% | viability, T/C [28] 6.36% | viability, T/C [29] 5.59% | viability, T/C [30] 7.04%
< 0.0316 µM: IC50 (second compound 10 µM)
